US10183936B2, “Hepatitis B core protein allosteric modulators” (priority 2014, dated 2019)

Tests used:
[1] = test system: HBV viral production in AD38 cells; assay: Viral load production in AD38 cells by quantitative PCR of the HBV core sequence in supernatant; type: cell-based; details: Hepatitis B virus, 144 h; 10 μM compound, 6 days at 37° C., viral load in supernatant compared against DMSO control wells; read-out: AD38 Viral Load (CpAM/DMSO %) at 10 μM
Outline: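 AD38 cells seeded at 50,000/well, treated 6 days at 37° C with compound added as 10× solution in 10% DMSO. HBV core sequence in clarified supernatant quantified by TaqMan qPCR against known standards; viral load compared with DMSO control wells.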

[2] = test system: AD38 cells; assay: Viability of AD38 cells (Promega CellTiter-Glo) at the end of compound treatment; type: cell-based; details: 10 μM compound, 6 days, luminescence normalized against DMSO control wells (controls being 100%)
Outline: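 AD38 cells seeded at 50,000/well received compound from a 10× solution in 10% DMSO and were incubated 6 days at 37° C. Viability was then read by CellTiter-Glo luminescence in tetracycline-free medium with 2% FBS and 1% DMSO, normalized to DMSO control wells (100%) and reported as percent viability.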

Row | SMILES | activity at 10 µM [1] [%] | AD38 Viability Normalized Result (CPAM/DMSO %) at 10 μM [2] [%]
1 | CN(C)CCCOc1ccc(CCNC(=O)c2ccc3c(c2)NC(=O)c2ccccc2S3)cc1.Cl [Compound 1155] | 18 | 103
2 | O=C(NCc1cncnc1)c1ccc2c(c1)NC(=O)c1cccc(F)c1S2 [Compound 1390] | 2 | 92
3 | CN1C(=O)c2ccccc2Sc2ccc(C(=O)NCc3cccnc3)cc21 [Compound 1553] | 86 | 93
4 | O=C(Nc1ccncc1)c1ccc2c(c1)NC(=O)c1ccccc1S2 [Compound 1444] | 6 | 65
5 | COc1ccc(CNC(=O)c2ccc3c(c2)NC(=O)c2ccccc2S3)cc1 [Compound 1161] | 1 | 99
6 | O=C(NCCc1ccccn1)c1cc2c(cc1F)Sc1ccccc1C(=O)N2 [Compound 1394] | 55 | 94
7 | O=C(NCc1cncs1)c1ccc2c(c1)NC(=O)c1ccccc1N2 [Compound 1602, 11-oxo-N-(thiazol-5-ylmethyl)-10, 11-dihydro-5H-dibenzo [b,e] [1,4] diazepine-8-carboxamide] | 38 | 116
8 | O=C(NCCC1CCCCC1)c1ccc2c(c1)NC(=O)c1ccccc1S2(=O)=O [Compound 1206, N-(2-cyclohexylethyl)-11-oxo-10, 11-dihydrodibenzo [b,f] [1,4] thiazepine-8-carboxamide 5,5-dioxide] | 10 | 106
9 | CS(=O)(=O)c1ccc(CCNC(=O)c2ccc3c(c2)NC(=O)c2ccccc2S3)cc1 [Compound 1103] | 2 | 87
10 | CCOc1cccc(CCNC(=O)c2ccc3c(c2)NC(=O)c2ccccc2S3)c1 [Compound 1157] | 1 | 48
11 | Cc1c(C(=O)NCc2cncs2)ccc2c1NC(=O)c1ccccc1S2 [Compound 1513] | 2 | 82
12 | O=C(NCCc1ccc(-c2ccccc2)cc1)c1ccc2c(c1)NC(=O)c1c(F)cccc1S2 [Compound 1465] | 39 | 106
13 | O=C1Nc2cc(S(=O)(=O)Nc3cncnc3)ccc2[S+]([O-])c2ccccc21 (centres unmarked) [Compound 1506] | 72 | 85
14 | O=C(NCCc1ccc(C(F)(F)F)cc1)c1ccc2c(c1)NC(=O)c1ccccc1S2 [Compound 1186] | 1 | 39
15 | CN1c2ccc(C(=O)NCCc3cccnc3)cc2NC(=O)c2ccccc21 [Compound 1549] | 7 | 109
16 | CN1c2ccc(C(=O)NCc3cccnc3)cc2NC(=O)c2ccccc21 [Compound 1499] | 2 | 84
17 | O=C(NCCc1ccc(OC(F)(F)F)cc1)c1ccc2c(c1)NC(=O)c1ccccc1S2 [Compound 1182] | 13 | 55
18 | O=C(NCc1ccc(F)cc1)c1ccc2c(c1)NC(=O)c1ccccc1S2 [Compound 1197] | 1 | 88
19 | O=C(NCCc1ccc(F)cc1)c1ccc2c(c1)NC(=O)c1ccccc1S2 [Compound 1113] | 1 | 99

Row | SMILES | activity at 10 µM [1] [%] | AD38 Viability Normalized Result (CPAM/DMSO %) at 10 μM [2] [%]
20 | Cc1c(C(=O)NCCc2cnco2)ccc2c1NC(=O)c1ccccc1S2 [Compound 1560] | 13 | 92
21 | CC(C)(C)c1ccc(CCNC(=O)c2ccc3c(c2)NC(=O)c2ccccc2S3)cc1 [Compound 1194] | 1 | 45
22 | O=C(NCCc1cnco1)c1ccc2c(c1)NC(=O)c1ccccc1N2Cc1ccccc1 [Compound 1559] | 68 | 92
23 | O=C(NCCC(c1ccccc1)N1CCCC1)c1ccc2c(c1)NC(=O)c1ccccc1S2 (centres unmarked) [Compound 1252] | 14 | 94
24 | O=C(Nc1cccc(-c2ccccc2)c1)c1ccc2c(c1)NC(=O)c1ccccc1S2 [Compound 1445] | 24 | 38
25 | Cc1c(C(=O)NCCc2cncs2)ccc2c1NC(=O)c1ccccc1S2 [Compound 1561] | 8 | 118
26 | O=C(NCc1cccnc1)c1ccc2c(c1)NC(=O)c1ccccc1S2 [Compound 1211] | 1 | 106
27 | O=C(NCCC1CCNCC1)c1ccc2c(c1)NC(=O)c1ccccc1S2 [Compound 1244, 11-oxo-N-(2-(piperidin-4-yl)ethyl)-10, 11-dihydrodibenzo [b,f] [1,4] thiazepine-8-carboxamide] | 14 | 103
28 | CCc1cccc(CCNC(=O)c2ccc3c(c2)NC(=O)c2ccccc2S3)c1 [Compound 1260] | 8 | 100
29 | N#Cc1ccc(CCNC(=O)c2ccc3c(c2)NC(=O)c2ccccc2S3)cc1 [Compound 1120] | 7 | 94
30 | O=C(NC[C@@H](C(=O)O)c1ccccc1)c1ccc2c(c1)NC(=O)c1ccccc1S2 [Compound 1269, (S)-3-(11-oxo-10, 11-dihydrodibenzo [b,f] [1,4]thiazepine-8-carboxamido)-2-phenylpropanoic acid] | 63 | 107
31 | O=C(NCc1scnc1-c1ccccc1)c1ccc2c(c1)NC(=O)c1ccccc1S2 [Compound 1605] | 25 | 106
32 | O=C(Nc1ccncc1)c1ccc2c(c1)NC(=O)c1ccccc1N2Cc1ccccc1 [Compound 1494] | 115 | 60
33 | O=C(NCc1cnc(-c2ccccc2)nc1)c1ccc2c(c1)NC(=O)c1ccccc1S2(=O)=O [Compound 1635] | 1 | 93
34 | O=C(Nc1ccncc1)c1ccc2c(c1)NC(=O)c1cc(F)ccc1S2 [Compound 1330] | 41 | 109
35 | C[C@H](O)CNC(=O)c1ccc2c(c1)NC(=O)c1ccccc1S2 [Compound 1222] | 32 | 100
36 | CN(C)S(=O)(=O)c1ccc(CCNC(=O)c2ccc3c(c2)NC(=O)c2ccccc2N3Cc2ccccc2)cc1 [Compound 1512] | 27 | 99
37 | NS(=O)(=O)c1ccc(CCNC(=O)c2ccc3c(c2)NC(=O)c2ccccc2S3)cc1 [Compound 1101] | 15 | 107
